Here are results for six compounds from patent publication US5312816A, “Method of combatting osteoporosis in mammalian subjects, utilizing organic boron compounds” (priority 1993, dated 1994).

Read-outs that look alike come from different tables or passages of the source.

One test concerns Cathepsin. Put plainly: Human leukocyte cathepsin. In kind it is cell-based. The conditions noted are these: Table XIX; read-out: Human Leukocyte IC50 (head gives no enzyme; beside Cathepsin D). From the text: 5. Human peripheral leukocytes, RPMI-1788
(§1) 2. Acid Cathepsin D -azocasein-pH 5.0, hydrolytic azo-peptide produce 366 nm.

Another test deals with T1, 5'-Lipoxygenase (Homo sapiens, UniProt P09917).
T1 construct: human leukocyte tissue culture cells; endogenous in cells; host or cells: Human peripheral leukocytes, RPMI-1788
T1 sequence (P09917 1-674): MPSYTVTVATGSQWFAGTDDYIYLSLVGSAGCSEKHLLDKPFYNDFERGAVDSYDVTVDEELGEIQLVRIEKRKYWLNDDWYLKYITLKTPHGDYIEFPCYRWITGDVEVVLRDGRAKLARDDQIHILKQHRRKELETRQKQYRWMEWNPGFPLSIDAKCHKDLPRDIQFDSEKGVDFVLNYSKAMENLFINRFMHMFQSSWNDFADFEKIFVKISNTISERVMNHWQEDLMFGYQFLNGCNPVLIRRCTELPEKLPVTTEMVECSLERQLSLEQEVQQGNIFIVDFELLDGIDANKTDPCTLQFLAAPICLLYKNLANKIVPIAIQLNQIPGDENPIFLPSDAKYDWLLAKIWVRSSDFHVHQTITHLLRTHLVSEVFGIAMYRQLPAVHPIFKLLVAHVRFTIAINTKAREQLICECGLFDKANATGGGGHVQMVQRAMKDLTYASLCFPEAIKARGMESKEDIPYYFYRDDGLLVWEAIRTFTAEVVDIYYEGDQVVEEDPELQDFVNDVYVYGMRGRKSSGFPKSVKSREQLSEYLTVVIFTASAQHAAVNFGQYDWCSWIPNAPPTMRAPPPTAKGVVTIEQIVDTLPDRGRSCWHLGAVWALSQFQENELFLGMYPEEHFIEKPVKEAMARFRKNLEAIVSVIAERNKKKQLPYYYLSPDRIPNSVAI
Put plainly: Human leukocyte 5'-lipoxygenase. The format is cell-based.

A further test has as its target T2, Cathepsin D (Mus musculus, UniProt P18242).
T2 construct: azocasein assay pH 5.0
The test is described as follows: Mouse hepatic lysosomal cathepsin D activity. The format is biochemical.
From the text: 1. Cf1 male mouse hepatic 10% homogenates in 0.25M sucrose+0.001MEDTA,pH 7.2.
Lysosomal Enzymes - free and total [triton X-100].
as §1
Cathepsin azo casein activity -

Setting [1] is: read-out: Mouse Hepatic Cathepsin D IC50; Table XIX.

One may read the IC50 as the midpoint of a concentration-inhibition curve.

T2 sequence (P18242 65-410): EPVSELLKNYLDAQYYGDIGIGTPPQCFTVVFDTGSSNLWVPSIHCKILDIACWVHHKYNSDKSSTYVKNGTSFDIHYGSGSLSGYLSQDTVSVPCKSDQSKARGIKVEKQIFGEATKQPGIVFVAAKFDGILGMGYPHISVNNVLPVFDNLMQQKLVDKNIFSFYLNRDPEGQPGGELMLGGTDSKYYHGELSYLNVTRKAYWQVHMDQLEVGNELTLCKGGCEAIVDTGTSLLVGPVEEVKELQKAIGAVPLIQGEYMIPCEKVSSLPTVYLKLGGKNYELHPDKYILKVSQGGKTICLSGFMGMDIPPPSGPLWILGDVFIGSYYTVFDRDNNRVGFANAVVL

Regarding `CC(C)[Si](OC[C@H]1O[C@@H](n2cnc3c(=O)[nH]cnc32)C[C@@H]1O[Si](C(C)C)(C(C)C)C(C)C)(C(C)C)C(C)C` [Compound 29], the values for the IC50 in the test on Cathepsin, at 5'-Lipoxygenase and on Cathepsin D (setting [1]) were 31.8 µM, 8.85 µM and 79.6 µM, respectively.
As to `CC(C)[Si](OC[C@H]1O[C@@H](n2cnc3c(N)ncnc32)C[C@@H]1O[Si](C(C)C)(C(C)C)C(C)C)(C(C)C)C(C)C` [Compound 35], the values for the IC50 in the test with Cathepsin, against 5'-Lipoxygenase and at Cathepsin D (setting [1]) were 33.4 µM, 10.1 µM and 58.1 µM, respectively.
Consider `CC(C)[Si](OC[C@H]1O[C@@H](n2ccc(N)nc2=O)C[C@@H]1O[Si](C(C)C)(C(C)C)C(C)C)(C(C)C)C(C)C` [Compound 38], for which the IC50 in the test on Cathepsin was 13.9 µM; against 5'-Lipoxygenase it was 7.72 µM; on Cathepsin D (setting [1]) it was 59.7 µM.
As to `N#C[BH2-][n+]1c(N)ccn([C@H]2C[C@H](O)[C@@H](CO)O2)c1=O` [Compound 39, 2'-Deoxycytidine-N3-cyanoborane], the IC50 with Cathepsin turned out to be 8.72 µM; at 5'-Lipoxygenase (Table XIX, read-out: Leukocyte 5' lipoxygenase IC50), 12.8 µM; on Cathepsin D (Table XIX; read-out: Mouse Hepatic Cathepsin D IC50), 26 µM.
As to `CC(C)[Si](OC[C@H]1O[C@@H](n2ccc(N)[n+]([BH2-]C#N)c2=O)C[C@@H]1O[Si](C(C)C)(C(C)C)C(C)C)(C(C)C)C(C)C` [Compound 40], the IC50 in the test with Cathepsin stood at 6.12 µM; against 5'-Lipoxygenase, 3.88 µM; at Cathepsin D (setting [1]), 27.2 µM.
Turning to `CC(C)[Si](OC[C@@H]1CC[C@H](n2ccc(N)[n+]([BH2-]C#N)c2=O)O1)(C(C)C)C(C)C` [Compound 42], the IC50 in the test with Cathepsin turned out to be 7.31 µM; against 5'-Lipoxygenase, 6.64 µM; on Cathepsin D (setting [1]), 30.6 µM.
